Three molecules from ChEMBL document CHEMBL5696442, “Discovery of type II inhibitors of TGFβ-activated kinase 1 (TAK1) and mitogen-activated protein kinase kinase kinase kinase 2 (MAP4K2)” (J Med Chem, 2015) can be followed below.

Assay [1] addresses Serine/threonine-protein kinase Nek5 (Homo sapiens) (UniProt Q6P3R8). As to the kind of experiment: Inhibition of NEK5 (unknown origin) at 1 uM by Ambit Kinomescan binding assay relative to control; values are per cent of control.
Assay [2] concerns the target Serine/threonine-protein kinase MARK2 (Homo sapiens) (UniProt Q7KZI7). As to the kind of experiment: Inhibition of MARK2 (unknown origin) at 1 uM by Ambit Kinomescan binding assay relative to control.
The target in assay [3] is Muscle, skeletal receptor tyrosine-protein kinase (Homo sapiens) (UniProt O15146). As to the kind of experiment: Inhibition of MUSK (unknown origin) at 10 uM by Ambit Kinomescan binding assay relative to control; values are per cent of control.
Sequence of Muscle, skeletal receptor tyrosine-protein kinase (Homo sapiens) (O15146 whole entry): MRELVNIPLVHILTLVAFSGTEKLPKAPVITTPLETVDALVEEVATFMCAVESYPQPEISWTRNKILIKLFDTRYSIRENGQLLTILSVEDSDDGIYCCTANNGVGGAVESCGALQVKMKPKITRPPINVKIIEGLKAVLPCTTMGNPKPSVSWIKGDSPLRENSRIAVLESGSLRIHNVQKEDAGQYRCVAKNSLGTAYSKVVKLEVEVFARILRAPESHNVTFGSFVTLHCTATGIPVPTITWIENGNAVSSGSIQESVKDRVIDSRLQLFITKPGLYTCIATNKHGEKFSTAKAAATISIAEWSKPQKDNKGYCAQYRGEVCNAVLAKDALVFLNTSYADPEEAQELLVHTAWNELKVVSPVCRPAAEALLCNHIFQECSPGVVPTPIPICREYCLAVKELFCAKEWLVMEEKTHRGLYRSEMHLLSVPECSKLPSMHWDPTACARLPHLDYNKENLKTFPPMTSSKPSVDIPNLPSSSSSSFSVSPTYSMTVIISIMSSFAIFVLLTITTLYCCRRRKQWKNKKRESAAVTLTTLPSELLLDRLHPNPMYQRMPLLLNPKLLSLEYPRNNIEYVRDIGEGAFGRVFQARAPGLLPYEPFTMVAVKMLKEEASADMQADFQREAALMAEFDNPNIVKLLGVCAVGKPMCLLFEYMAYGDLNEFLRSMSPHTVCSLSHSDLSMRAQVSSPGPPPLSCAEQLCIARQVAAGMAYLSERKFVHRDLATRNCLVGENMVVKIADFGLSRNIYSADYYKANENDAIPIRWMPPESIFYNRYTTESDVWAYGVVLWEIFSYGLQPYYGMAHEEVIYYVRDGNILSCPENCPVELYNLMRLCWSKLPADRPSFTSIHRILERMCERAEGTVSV
Assay [4] addresses Tyrosine-protein kinase ABL (Homo sapiens) (UniProt P00519+P42684). As to the kind of experiment: Inhibition of ABL1/2 ACT labeling site in human Huh-7 cells at 1 uM by KiNativ Profiling analysis relative to control. The assay is classed as cell-based.
The target in assay [5] is Tyrosine-protein kinase Fyn (Homo sapiens) (UniProt P06241). As to the kind of experiment: Inhibition of FYN ACT labeling site in human Huh-7 cells at 1 uM by KiNativ Profiling analysis relative to control. The assay is classed as cell-based.
The target in assay [6] is Mitogen-activated protein kinase kinase kinase 20 (Homo sapiens, UniProt Q9NYL2). As to the kind of experiment: Inhibition of ZAK Lys1 labeling site in human A-375 cells at 0.5 uM by KiNativ Profiling analysis relative to control. The format is cell-based.
Sequence of Mitogen-activated protein kinase kinase kinase 20 (Q9NYL2 2-800 limits assumed): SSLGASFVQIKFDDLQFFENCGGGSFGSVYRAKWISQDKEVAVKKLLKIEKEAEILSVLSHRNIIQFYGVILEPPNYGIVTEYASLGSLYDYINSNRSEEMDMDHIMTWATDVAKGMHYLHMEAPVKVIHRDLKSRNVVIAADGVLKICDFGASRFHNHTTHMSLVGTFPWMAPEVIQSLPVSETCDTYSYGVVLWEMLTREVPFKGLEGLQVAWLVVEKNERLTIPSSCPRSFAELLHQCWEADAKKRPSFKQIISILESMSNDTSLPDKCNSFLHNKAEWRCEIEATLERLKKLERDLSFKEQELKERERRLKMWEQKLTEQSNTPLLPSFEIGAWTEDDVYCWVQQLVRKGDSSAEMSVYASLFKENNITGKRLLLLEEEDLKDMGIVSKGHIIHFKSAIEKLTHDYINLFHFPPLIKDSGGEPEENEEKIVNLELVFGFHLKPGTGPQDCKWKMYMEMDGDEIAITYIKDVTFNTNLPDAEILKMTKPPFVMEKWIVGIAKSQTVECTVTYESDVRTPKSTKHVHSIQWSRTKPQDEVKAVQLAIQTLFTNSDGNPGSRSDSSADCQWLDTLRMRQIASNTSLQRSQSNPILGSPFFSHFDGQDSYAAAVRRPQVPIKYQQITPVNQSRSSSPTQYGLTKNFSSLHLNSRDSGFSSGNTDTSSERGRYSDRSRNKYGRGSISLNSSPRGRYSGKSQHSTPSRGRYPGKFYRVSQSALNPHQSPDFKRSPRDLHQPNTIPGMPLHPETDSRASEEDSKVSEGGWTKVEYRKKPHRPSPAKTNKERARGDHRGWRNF
For assay [7], the target named is AMPK alpha1/alpha2 (Homo sapiens) (UniProt P54646+Q13131). As to the kind of experiment: Inhibition of AMPK alpha1/2 K2 labeling site in human Huh-7 cells at 1 uM by KiNativ Profiling analysis relative to control. The format is cell-based.
For assay [8], the target named is Ribosomal protein S6 kinase alpha-6 (Homo sapiens) (UniProt Q9UK32). As to the kind of experiment: Inhibition of N-terminal RPS6KA6 kinase domain 1 (unknown origin) at 10 uM by Ambit Kinomescan binding assay.
For assay [9], the target named is Serine/threonine-protein kinase Nek7 (Homo sapiens) (UniProt Q8TDX7). As to the kind of experiment: Inhibition of NEK7 ACT labeling site in human A-375 cells at 0.5 uM by KiNativ Profiling analysis relative to control. The assay is classed as cell-based.
Assay [10] deals with T1, Dual specificity mitogen-activated protein kinase kinase 6 (Homo sapiens) (UniProt P52564).
T1 sequence (whole entry): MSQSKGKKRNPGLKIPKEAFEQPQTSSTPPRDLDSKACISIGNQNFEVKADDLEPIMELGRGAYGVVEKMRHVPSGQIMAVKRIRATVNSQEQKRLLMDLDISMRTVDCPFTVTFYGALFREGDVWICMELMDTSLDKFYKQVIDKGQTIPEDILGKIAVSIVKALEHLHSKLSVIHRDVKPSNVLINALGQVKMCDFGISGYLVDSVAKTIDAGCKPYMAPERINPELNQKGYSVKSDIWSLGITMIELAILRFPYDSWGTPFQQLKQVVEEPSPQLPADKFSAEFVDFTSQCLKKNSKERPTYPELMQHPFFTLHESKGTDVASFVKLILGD
As to the kind of experiment: Inhibition of MAP2K6 K1 labeling site in human Huh-7 cells at 10 uM by KiNativ Profiling analysis relative to control. The assay is classed as cell-based.

In assay [11] the target is Bone morphogenetic protein receptor type-1A (Homo sapiens) (UniProt P36894). As to the kind of experiment: Inhibition of BMPR1A (unknown origin) at 10 uM by Ambit Kinomescan binding assay.
Assay [12] deals with T2, Serine/threonine-protein kinase Chk1 (Homo sapiens) (UniProt O14757).
T2 sequence (whole entry): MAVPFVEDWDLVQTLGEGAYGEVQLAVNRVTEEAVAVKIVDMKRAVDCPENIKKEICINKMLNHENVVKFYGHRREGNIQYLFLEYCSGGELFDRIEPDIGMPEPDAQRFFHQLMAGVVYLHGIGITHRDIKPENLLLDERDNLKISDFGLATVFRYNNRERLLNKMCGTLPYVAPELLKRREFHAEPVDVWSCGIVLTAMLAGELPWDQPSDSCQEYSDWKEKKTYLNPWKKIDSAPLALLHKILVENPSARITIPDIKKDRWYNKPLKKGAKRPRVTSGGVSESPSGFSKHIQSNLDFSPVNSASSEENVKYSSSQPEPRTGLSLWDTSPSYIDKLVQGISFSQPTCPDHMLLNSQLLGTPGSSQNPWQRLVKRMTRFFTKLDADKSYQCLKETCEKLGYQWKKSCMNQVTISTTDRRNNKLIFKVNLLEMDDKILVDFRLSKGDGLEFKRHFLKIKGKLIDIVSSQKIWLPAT
As to the kind of experiment: Inhibition of CHK1 in human Huh-7 cells at 10 uM by KiNativ Profiling analysis relative to control. The assay is classed as cell-based.

The target in assay [13] is cAMP-dependent protein kinase catalytic subunit PRKX (Homo sapiens) (UniProt P51817). As to the kind of experiment: Inhibition of PRKX (unknown origin) at 10 uM by Ambit Kinomescan binding assay.
Assay [14] has as its target T3, Serine/threonine-protein kinase 3 (Homo sapiens) (UniProt Q13188).
T3 sequence (whole entry): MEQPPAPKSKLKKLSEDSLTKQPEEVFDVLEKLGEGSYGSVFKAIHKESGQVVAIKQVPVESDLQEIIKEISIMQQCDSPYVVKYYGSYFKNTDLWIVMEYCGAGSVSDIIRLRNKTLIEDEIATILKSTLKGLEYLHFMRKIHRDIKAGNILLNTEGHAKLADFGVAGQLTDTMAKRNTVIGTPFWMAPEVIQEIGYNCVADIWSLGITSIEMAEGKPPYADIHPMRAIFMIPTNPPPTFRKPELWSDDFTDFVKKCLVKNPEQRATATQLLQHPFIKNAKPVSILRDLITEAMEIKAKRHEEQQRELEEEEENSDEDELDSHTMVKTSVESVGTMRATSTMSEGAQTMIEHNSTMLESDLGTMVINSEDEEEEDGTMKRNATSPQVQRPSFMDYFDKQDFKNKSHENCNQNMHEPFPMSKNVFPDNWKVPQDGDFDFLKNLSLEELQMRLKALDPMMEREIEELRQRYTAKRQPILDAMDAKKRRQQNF
As to the kind of experiment: Inhibition of MST2 Lys2 labeling site harbouring DIKAGNILLNTEGHAK in human Huh-7 cell lysate at 1 uM by KiNativ Profiling analysis relative to control. The format is subcellular.

Assay [15] addresses Epidermal growth factor receptor (Homo sapiens) (UniProt P00533). As to the kind of experiment: Inhibition of EGFR Lys1 labeling site harbouring GLWIPEGEKVKIPVAIKELR in human Huh-7 cell lysate at 1 uM by KiNativ Profiling analysis relative to control. The format is subcellular.
The target in assay [16] is Cyclin-dependent kinase 11B (Homo sapiens) (UniProt P21127). As to the kind of experiment: Inhibition of CDK11 Lys2 labeling site in human Huh-7 cell lysate at 1 uM by KiNativ Profiling analysis relative to control. The format is subcellular.
Assay [17] concerns the target Microtubule-associated serine/threonine-protein kinase 2 (Homo sapiens) (UniProt Q6P0Q8). As to the kind of experiment: Inhibition of MAST2 Lys2 labeling site harbouring DLKPDNLLVTSMGHIK in human Huh-7 cells at 1 uM by KiNativ Profiling analysis relative to control. The format is cell-based.

The source made the active and inactive calls. The rule behind the calls is not given here.

Sequence of Serine/threonine-protein kinase MARK2 (Homo sapiens) (Q7KZI7 whole entry): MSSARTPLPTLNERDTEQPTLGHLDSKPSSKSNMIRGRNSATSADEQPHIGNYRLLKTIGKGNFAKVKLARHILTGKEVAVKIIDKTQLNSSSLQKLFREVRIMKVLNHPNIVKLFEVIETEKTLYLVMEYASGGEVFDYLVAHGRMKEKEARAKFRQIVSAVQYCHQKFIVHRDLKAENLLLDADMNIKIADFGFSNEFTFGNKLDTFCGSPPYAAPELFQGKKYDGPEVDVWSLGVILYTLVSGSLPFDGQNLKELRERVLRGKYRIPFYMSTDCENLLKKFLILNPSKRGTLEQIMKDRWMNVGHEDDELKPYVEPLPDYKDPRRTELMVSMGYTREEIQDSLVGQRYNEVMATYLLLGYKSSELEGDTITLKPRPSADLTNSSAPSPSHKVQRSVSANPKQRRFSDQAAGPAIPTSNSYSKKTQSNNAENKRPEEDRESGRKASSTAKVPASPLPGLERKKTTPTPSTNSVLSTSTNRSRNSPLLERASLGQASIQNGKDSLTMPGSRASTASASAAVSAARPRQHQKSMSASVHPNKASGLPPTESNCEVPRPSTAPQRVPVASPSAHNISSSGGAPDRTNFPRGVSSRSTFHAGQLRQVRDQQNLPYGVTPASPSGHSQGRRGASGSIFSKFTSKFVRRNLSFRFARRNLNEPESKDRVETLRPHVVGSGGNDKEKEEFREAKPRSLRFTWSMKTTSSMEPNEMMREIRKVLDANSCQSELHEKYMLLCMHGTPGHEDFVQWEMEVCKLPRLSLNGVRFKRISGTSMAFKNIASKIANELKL
Sequence of Microtubule-associated serine/threonine-protein kinase 2 (Homo sapiens) (Q6P0Q8 whole entry): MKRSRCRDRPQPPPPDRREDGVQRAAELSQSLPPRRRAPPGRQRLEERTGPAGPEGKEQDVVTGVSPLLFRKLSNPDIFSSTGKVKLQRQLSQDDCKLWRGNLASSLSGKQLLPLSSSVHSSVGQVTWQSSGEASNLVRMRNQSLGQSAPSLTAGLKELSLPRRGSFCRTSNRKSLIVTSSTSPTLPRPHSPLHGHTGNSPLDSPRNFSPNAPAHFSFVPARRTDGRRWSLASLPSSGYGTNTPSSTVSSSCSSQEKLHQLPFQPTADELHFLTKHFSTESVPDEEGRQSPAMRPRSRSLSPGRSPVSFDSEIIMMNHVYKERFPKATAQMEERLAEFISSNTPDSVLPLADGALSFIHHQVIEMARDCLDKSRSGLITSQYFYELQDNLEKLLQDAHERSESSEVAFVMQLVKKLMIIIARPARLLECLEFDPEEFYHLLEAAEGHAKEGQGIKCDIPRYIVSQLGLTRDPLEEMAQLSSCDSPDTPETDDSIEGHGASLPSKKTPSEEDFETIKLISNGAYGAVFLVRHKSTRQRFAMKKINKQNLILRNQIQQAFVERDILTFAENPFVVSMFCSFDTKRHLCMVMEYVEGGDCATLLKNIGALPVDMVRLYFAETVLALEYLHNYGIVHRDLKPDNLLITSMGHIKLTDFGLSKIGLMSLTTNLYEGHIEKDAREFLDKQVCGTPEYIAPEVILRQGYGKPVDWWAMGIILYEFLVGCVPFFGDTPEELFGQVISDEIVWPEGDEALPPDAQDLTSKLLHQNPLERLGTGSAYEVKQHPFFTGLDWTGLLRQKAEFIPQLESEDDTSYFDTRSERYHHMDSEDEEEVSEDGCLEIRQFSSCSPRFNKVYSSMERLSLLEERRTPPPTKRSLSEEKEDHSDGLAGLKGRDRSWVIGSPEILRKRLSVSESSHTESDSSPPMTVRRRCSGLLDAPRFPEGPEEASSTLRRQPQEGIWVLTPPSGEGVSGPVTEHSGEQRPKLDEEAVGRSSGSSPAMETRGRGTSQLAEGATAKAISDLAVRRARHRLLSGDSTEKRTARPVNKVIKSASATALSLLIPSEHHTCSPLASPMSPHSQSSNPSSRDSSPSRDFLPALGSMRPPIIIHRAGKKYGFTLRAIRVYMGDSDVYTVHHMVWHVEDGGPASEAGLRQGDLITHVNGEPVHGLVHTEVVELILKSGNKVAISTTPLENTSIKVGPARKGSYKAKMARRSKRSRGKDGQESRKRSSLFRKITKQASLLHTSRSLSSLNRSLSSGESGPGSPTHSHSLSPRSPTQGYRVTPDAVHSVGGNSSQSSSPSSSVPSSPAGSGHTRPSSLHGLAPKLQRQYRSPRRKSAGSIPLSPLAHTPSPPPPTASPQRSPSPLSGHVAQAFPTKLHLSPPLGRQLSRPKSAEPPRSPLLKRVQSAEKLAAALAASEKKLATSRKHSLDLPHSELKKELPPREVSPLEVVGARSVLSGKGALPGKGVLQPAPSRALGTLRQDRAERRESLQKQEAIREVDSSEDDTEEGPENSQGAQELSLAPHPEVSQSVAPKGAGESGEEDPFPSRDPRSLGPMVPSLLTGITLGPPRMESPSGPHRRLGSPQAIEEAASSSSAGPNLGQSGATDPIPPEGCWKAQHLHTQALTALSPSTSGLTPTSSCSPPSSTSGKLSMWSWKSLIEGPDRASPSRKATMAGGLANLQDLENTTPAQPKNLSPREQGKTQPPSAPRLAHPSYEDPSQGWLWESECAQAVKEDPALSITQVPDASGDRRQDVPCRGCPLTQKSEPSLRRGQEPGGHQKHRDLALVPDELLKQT
Sequence of Serine/threonine-protein kinase Nek5 (Homo sapiens) (Q6P3R8 whole entry): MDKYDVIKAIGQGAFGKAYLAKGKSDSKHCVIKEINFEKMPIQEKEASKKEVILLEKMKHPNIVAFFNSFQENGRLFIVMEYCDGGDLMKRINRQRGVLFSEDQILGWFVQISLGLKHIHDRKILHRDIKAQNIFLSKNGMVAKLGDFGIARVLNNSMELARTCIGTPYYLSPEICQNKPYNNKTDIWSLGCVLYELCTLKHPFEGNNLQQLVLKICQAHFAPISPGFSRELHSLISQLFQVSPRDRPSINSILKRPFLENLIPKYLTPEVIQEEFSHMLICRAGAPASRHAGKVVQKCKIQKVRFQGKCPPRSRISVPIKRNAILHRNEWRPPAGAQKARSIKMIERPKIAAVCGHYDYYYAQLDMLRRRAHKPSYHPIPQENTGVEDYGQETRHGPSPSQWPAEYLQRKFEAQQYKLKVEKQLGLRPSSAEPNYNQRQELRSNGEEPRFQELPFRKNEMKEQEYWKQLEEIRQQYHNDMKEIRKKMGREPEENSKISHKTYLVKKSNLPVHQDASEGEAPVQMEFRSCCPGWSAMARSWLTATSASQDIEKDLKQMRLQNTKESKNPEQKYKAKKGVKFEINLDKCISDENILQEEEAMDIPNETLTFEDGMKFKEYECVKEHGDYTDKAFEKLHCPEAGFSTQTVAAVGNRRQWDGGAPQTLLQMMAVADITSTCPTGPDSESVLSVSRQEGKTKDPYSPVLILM

`CCN1CCN(Cc2ccc(NC(=O)c3ccc(C)c(/C=C/c4cnc5[nH]ccc5c4OC)c3)cc2C(F)(F)F)CC1`: the residual activity (as a rule, the signal under treatment as a percentage of the control signal) in [1] worked out at 47%. Also, the inhibition (usually the drop in the measured response relative to a control, in per cent) in [2] was 59%.
In [3], `CCN1CCN(Cc2ccc(NC(=O)c3ccc(C)c(Oc4ccnc5[nH]ccc45)c3)cc2C(F)(F)F)CC1` registered a % of control of 0.2%. Further, the inhibition is 44.3% in assay [4]; -0.3% in assay [5]; 93% in assay [6]; 12.5% in assay [7]; 1.6% in assay [9]; 5.5% in assay [10]. Also, the inhibition in assay [12] stood at 12.3%. Moreover, the inhibition entry in assay [8], in assay [11] and in assay [13] was “inactive” in each case.
As to `CNc1cc(Oc2cc(C(=O)Nc3cc(N4CCN(C)CC4)cc(C(F)(F)F)c3)ccc2C)ncn1`, the inhibition is 8.2% in assay [14], 9.9% in [15], -8.6% in [16] and 30.2% in [17].
